Test results published in patent publication US6365621B1, “Remedies or preventives for intractable epilepsy” (Pharmaceutical Co., Ltd., priority 1998, dated 2002).

Tested on: kainate-induced amygdala seizures
Experiment: Local cerebral glucose metabolism during kainate-induced amygdala seizures ([14C]deoxyglucose autoradiography)
Format: in vivo, rat
Set-up: key to Effect on local cerebral glucose metabolism rate: → : no change; →↓ : decreased in a low degree; ↓ : decreased in a moderate degree; ↓↓ : decreased in a high degree
Conditions: for Local glucose metabolism rate: average ± standard error
Source text: [Method for measuring cerebral glucose metabolism] Cannulas for injection of kainic acid were inserted in an assigned position of the left side of the amygdala of 18 Wistar male rats and fixed through the same procedure as described in Example I-1. Seven days after operation, polyethylene catheters were set and fixed to the femoral artery and vein of one side under halothane anesthesion, and the lower half of the body of each rat were put in plaster so as to prevent removal of the catheter. Upon awakening from narcotism, the same kainic acid solution as described in I-1 (1 μL) was injected through the cannula so as to induce seizures. After elapse of 90 minutes from injection of kainic acid, when limbic system seizures were in status epilepticus, 50, 100, or 200 mg/kg of nefiracetam was intravenously injected, whereas saline was injected into rats of the control group. After 60 minutes, 25 μCi of [^14C] deoxyglucose was intravenously injected. After the tracer was injected, blood was continuously collected from the artery for 45 minutes. When collection was finished, heads were cut off. Brains were extirpated immediately and instantly frozen in by hexane (−25° C.) cooled by dry ice. The frozen brain was sliced in a cryostat (−20° C.) so as to produce coronary, serial-frozen sections having a thickness of 20 μm. Subsequently, the sections were dried and put on high-speed X-ray film with a [^14C] standard, followed by seven-day-exposure in a cassette to thereby obtain an autoradiogram. The blood samples collected from the artery were centrifuged so as to collect plasma, the [^14C] radioactivity was measured by use of a liquid scintillation counter, and glucose concentration in plasma was measured.
The optical density of the intracerebral structure of each section was measured from the autoradiogram by use of a densitometer, and a glucose utilization rate of each intracerabral structure was calculated by use of the formula of Sokoloff (Sokoloff, L., Reivich, M., Kennedy, C., et al., J. Neurochemistry, 28: 897-916, 1977) based on [^14C] radioactivity and glucose concentration in plasma. The obtained data were compared quantitatively and statistically with those of the control group, through the Mann-Whitney U-test.

[1] = Amygdala, focal side, 100 mg/kg i.v.
[2] = Amygdala, non-focal side, 100 mg/kg i.v.
[3] = Brain stem reticular formation, focal side, 100 mg/kg i.v.
[4] = Brain stem reticular formation, non-focal side, 100 mg/kg i.v.
[5] = Candatum-putamen, focal side, 100 mg/kg i.v.
[6] = Candatum-putamen, non-focal side, 100 mg/kg i.v.
[7] = Cerebellar cortex, focal side, 100 mg/kg i.v.
[8] = Cerebellar cortex, non-focal side, 100 mg/kg i.v.
[9] = Corpus callosum, focal side, 100 mg/kg i.v.
[10] = Corpus callosum, non-focal side, 100 mg/kg i.v.
[11] = Frontal lobe cortex, focal side, 100 mg/kg i.v.
[12] = Frontal lobe cortex, non-focal side, 100 mg/kg i.v.
[13] = Hypothalamaus, focal side, 100 mg/kg i.v.
[14] = Hypothalamaus, non-focal side, 100 mg/kg i.v.
[15] = Occipital lobe cortex, focal side, 100 mg/kg i.v.

## Cc1cccc(C)c1NC(=O)CN1CCCC1=O [nefiracetam, N-(2,6-dimethylphenyl)-2-(2-oxo-1-pyrrolidinyl)acetamide]
200 mg/kg i.v.
  Regions with promoted glucose metabolism: the amygdala on the focal side is the only region where the metabolism is prompted
Amygdala, focal side, 50 mg/kg i.v.
  Effect on local cerebral glucose metabolism rate: →
[1]
  Effect on local cerebral glucose metabolism rate: →
  Local glucose metabolism rate: 201 ± 4.5 µmol/100 g/min
Amygdala, focal side, 200 mg/kg i.v.
  Effect on local cerebral glucose metabolism rate: ↓
Amygdala, non-focal side, 50 mg/kg i.v.
  Effect on local cerebral glucose metabolism rate: →
[2]
  Effect on local cerebral glucose metabolism rate: ↓↓
  Local glucose metabolism rate: 66.2 ± 3.8 µmol/100 g/min
Amygdala, non-focal side, 200 mg/kg i.v.
  Effect on local cerebral glucose metabolism rate: ↓↓
Brain stem reticular formation, focal side, 50 mg/kg i.v.
  Effect on local cerebral glucose metabolism rate: →
[3]
  Effect on local cerebral glucose metabolism rate: →↓
  Local glucose metabolism rate: 52.9 ± 3.5 µmol/100 g/min
Brain stem reticular formation, focal side, 200 mg/kg i.v.
  Effect on local cerebral glucose metabolism rate: ↓
Brain stem reticular formation, non-focal side, 50 mg/kg i.v.
  Effect on local cerebral glucose metabolism rate: →
[4]
  Effect on local cerebral glucose metabolism rate: ↓
  Local glucose metabolism rate: 49.6 ± 3.3 µmol/100 g/min
Brain stem reticular formation, non-focal side, 200 mg/kg i.v.
  Effect on local cerebral glucose metabolism rate: ↓
Candatum-putamen, focal side, 50 mg/kg i.v.
  Effect on local cerebral glucose metabolism rate: →
[5]
  Effect on local cerebral glucose metabolism rate: →
  Local glucose metabolism rate: 207 ± 16.5 µmol/100 g/min
Candatum-putamen, focal side, 200 mg/kg i.v.
  Effect on local cerebral glucose metabolism rate: ↓
Candatum-putamen, non-focal side, 50 mg/kg i.v.
  Effect on local cerebral glucose metabolism rate: →↓
[6]
  Effect on local cerebral glucose metabolism rate: ↓↓
  Local glucose metabolism rate: 73.1 ± 2.5 µmol/100 g/min
Candatum-putamen, non-focal side, 200 mg/kg i.v.
  Effect on local cerebral glucose metabolism rate: ↓↓
Cerebellar cortex, focal side, 50 mg/kg i.v.
  Effect on local cerebral glucose metabolism rate: →
[7]
  Effect on local cerebral glucose metabolism rate: →
  Local glucose metabolism rate: 47.2 ± 2.5 µmol/100 g/min
Cerebellar cortex, focal side, 200 mg/kg i.v.
  Effect on local cerebral glucose metabolism rate: →
Cerebellar cortex, non-focal side, 50 mg/kg i.v.
  Effect on local cerebral glucose metabolism rate: →
[8]
  Effect on local cerebral glucose metabolism rate: ↓
  Local glucose metabolism rate: 46.1 ± 2.1 µmol/100 g/min
Cerebellar cortex, non-focal side, 200 mg/kg i.v.
  Effect on local cerebral glucose metabolism rate: →
Corpus callosum, focal side, 50 mg/kg i.v.
  Effect on local cerebral glucose metabolism rate: →
[9]
  Effect on local cerebral glucose metabolism rate: →
  Local glucose metabolism rate: 21.9 ± 1.1 µmol/100 g/min
Corpus callosum, focal side, 200 mg/kg i.v.
  Effect on local cerebral glucose metabolism rate: →
Corpus callosum, non-focal side, 50 mg/kg i.v.
  Effect on local cerebral glucose metabolism rate: →
[10]
  Effect on local cerebral glucose metabolism rate: →
  Local glucose metabolism rate: 21.1 ± 1.1 µmol/100 g/min
Corpus callosum, non-focal side, 200 mg/kg i.v.
  Effect on local cerebral glucose metabolism rate: →
Frontal lobe cortex, focal side, 50 mg/kg i.v.
  Effect on local cerebral glucose metabolism rate: →
[11]
  Effect on local cerebral glucose metabolism rate: ↓
  Local glucose metabolism rate: 81.8 ± 5.7 µmol/100 g/min
Frontal lobe cortex, focal side, 200 mg/kg i.v.
  Effect on local cerebral glucose metabolism rate: ↓
Frontal lobe cortex, non-focal side, 50 mg/kg i.v.
  Effect on local cerebral glucose metabolism rate: →
[12]
  Effect on local cerebral glucose metabolism rate: ↓
  Local glucose metabolism rate: 65.7 ± 3.6 µmol/100 g/min
Frontal lobe cortex, non-focal side, 200 mg/kg i.v.
  Effect on local cerebral glucose metabolism rate: ↓
Hypothalamaus, focal side, 50 mg/kg i.v.
  Effect on local cerebral glucose metabolism rate: →
[13]
  Effect on local cerebral glucose metabolism rate: ↓
  Local glucose metabolism rate: 70.6 ± 4.7 µmol/100 g/min
Hypothalamaus, focal side, 200 mg/kg i.v.
  Effect on local cerebral glucose metabolism rate: ↓
Hypothalamaus, non-focal side, 50 mg/kg i.v.
  Effect on local cerebral glucose metabolism rate: →
[14]
  Effect on local cerebral glucose metabolism rate: →↓
  Local glucose metabolism rate: 58.5 ± 4.5 µmol/100 g/min
Hypothalamaus, non-focal side, 200 mg/kg i.v.
  Effect on local cerebral glucose metabolism rate: ↓
Occipital lobe cortex, focal side, 50 mg/kg i.v.
  Effect on local cerebral glucose metabolism rate: →
[15]
  Effect on local cerebral glucose metabolism rate: →↓
  Local glucose metabolism rate: 139 ± 5.6 µmol/100 g/min
Occipital lobe cortex, focal side, 200 mg/kg i.v.
  Effect on local cerebral glucose metabolism rate: ↓
